Measured values from patent publication US7678380B2, “Cosmetic treatment method for fighting against skin ageing effects” (LVMH Recherche, priority 1996, dated 2010).
Read-outs that look alike come from different tables or passages of the source.

Test system: adhesion of normal human keratinocytes to type IV collagen
Conditions: for A = adhesion in μg of protein per well (mean): keratinocytes of a donor, control 3.52; for percentage increase in adhesion: compared with control cultures
Description: Coating of the Adhesion Surfaces with Type IV Collagen
Wells of microplates (Falcon) are covered with 6 μg/cm^2 of sterile type IV human collagen (from Sigma).
Each well is then incubated overnight at +4° C. with a 4 mg/ml solution of bovine albumin, BSA, from Sigma.
The wells are then rinsed twice with a phosphate buffer, PBS (phosphate buffered saline), from Gibco.
Preparation of the Cultures of Normal Human Keratinocytes
The skin fragments are incubated in 0.25% w/v trypsin for 18 hours at +4° C. to separate the dermis and epidermis and to obtain, by agitation, a suspension of epidermal cells. The trypsin is neutralized with fetal calf serum, FCS, from Gibco.
The cells are inoculated into flasks defining a surface area of 75 cm^2 and are cultured in keratinocyte proliferation medium, K-SFM, from Gibco, to the point of confluence, when they are subcultured.
The cells used for the experiments for adhesion to the collagen substrate were not subcultured beyond the first subculture (called P0 or P1).
The keratinocytes are then incubated for 30 minutes at +4° C. before the step for adhesion to the substrate coated with collagen IV is carried out.
Measurement of the Adhesion of the Keratinocytes to the Type IV Collagen
The keratinocytes are inoculated into each well at a density of 93,000 cells/cm^2 in E 199 medium from Gibco, containing 2 mM L-glutamine from Gibco and 4 mg/ml of BSA (bovine serum albumin). After incubation for one hour at +4° C., the wells are rinsed with PBS, the adhering cells are then lyzed with 0.1 N sodium hydroxide solution and the cellular proteins are then quantified by means of the calorimetric method and bicinchoninic acid (BCA from Sigma).
A calibration is performed in parallel with BSA solubilized in 0.1 N sodium hydroxide solution, enabling the optical density (OD) values to be converted to micrograms (μg) of proteins per well.
These adhesion values between treated and untreated cells were compared by the 0.7 Student t-test at the p=0.05 threshold in order to assess their level of significance.

SMILES | A = adhesion in μg of protein per well (mean) (0.25 mM) | A = adhesion in μg of protein per well (mean) (0.5 mM) | percentage increase in adhesion (1 mM) | A = adhesion in μg of protein per well (mean) (1 mM) | percentage increase in adhesion (0.25 mM)
[Cl-].[Cl-].[Mg+2] [Magnesium chloride, magnesium chloride] | 4.32 μg of protein per well | 4.54 μg of protein per well | +31% | 4.57 μg of protein per well | 
N[C@@H](CC(=O)[O-])C(=O)[O-].[Mg+2] [Magnesium aspartate, magnesium aspartate] | 5.39 μg of protein per well |  |  |  | +54%
